Data: patent US10238670B2, “9-aminomethyl minocycline compounds and methods of use thereof in urinary tract infection (UTI) treatment” (Paratek Pharmaceuticals, Inc., priority 2016, dated 2019)
Converted amounts (≈) assume the structure as drawn.

Assays:
Assay in all cases: In vitro MIC, 2010 surveillance isolates
E. coli ESBL− = type: cell-based, Escherichia coli
E. coli ESBL+ = type: cell-based, Escherichia coli
K. pneumoniae ESBL− = type: cell-based, Klebsiella pneumoniae
K. pneumoniae ESBL+ = type: cell-based, Klebsiella pneumoniae
E. cloacae CeftazS = type: cell-based
E. cloacae CeftazR = type: cell-based
Enterobacter spp = type: cell-based
A. baumanii = type: cell-based
Acinetobacter spp = type: cell-based; details: for range of MICs (N <10, shown instead of MIC90): N=9
MSSA = type: cell-based
MRSA = type: cell-based
MS CoNS = type: cell-based, Coagulase-Negative Staphylococcus; details: for % R (resistance): Eucast breakpoints
MR CoNS = type: cell-based, Coagulase-Negative Staphylococcus; details: for % R (resistance): Eucast breakpoints
E. faecalis VS = type: cell-based
E. faecalis VNS = type: cell-based
E. faecium VS = type: cell-based
E. faecium VNS = type: cell-based

## CN(C)c1cc(NC(=O)CNC(C)(C)C)c(O)c2c1C[C@H]1C[C@H]3[C@H](N(C)C)C(O)=C(C(N)=O)C(=O)[C@@]3(O)C(O)=C1C2=O [Tigecycline]
E. coli ESBL−; Asia/Pac, Eucast breakpoints
  % R (resistance): 0%
E. coli ESBL−; Asia/Pac, N=282
  MIC90: 0.25 µg/mL (≈ 0.427 µM)
E. coli ESBL−; Europe, Eucast breakpoints
  % R (resistance): 0%
E. coli ESBL−; Europe, N=1533
  MIC90: 0.25 µg/mL (≈ 0.427 µM)
E. coli ESBL−; L. Amer, CLSI breakpoints
  % R (resistance): 0%
E. coli ESBL−; L. Amer, N=389
  MIC90: 0.25 µg/mL (≈ 0.427 µM)
E. coli ESBL−; N America, CLSI breakpoints
  % R (resistance): 0%
E. coli ESBL−; N America, N=1172
  MIC90: 0.25 µg/mL (≈ 0.427 µM)
E. coli ESBL+; Asia/Pac, Eucast breakpoints
  % R (resistance): 0%
E. coli ESBL+; Asia/Pac, N=219
  MIC90: 0.25 µg/mL (≈ 0.427 µM)
E. coli ESBL+; Europe, Eucast breakpoints
  % R (resistance): 0%
E. coli ESBL+; Europe, N=274
  MIC90: 0.5 µg/mL (≈ 0.854 µM)
E. coli ESBL+; L. Amer, CLSI breakpoints
  % R (resistance): 0%
E. coli ESBL+; L. Amer, N=168
  MIC90: 0.25 µg/mL (≈ 0.427 µM)
E. coli ESBL+; N America, CLSI breakpoints
  % R (resistance): 0%
E. coli ESBL+; N America, N=134
  MIC90: 0.25 µg/mL (≈ 0.427 µM)
K. pneumoniae ESBL−; Asia/Pac, Eucast breakpoints
  % R (resistance): 1.1%
K. pneumoniae ESBL−; Asia/Pac, N=189
  MIC90: 0.5 µg/mL (≈ 0.854 µM)
K. pneumoniae ESBL−; Europe, Eucast breakpoints
  % R (resistance): 0.3%
K. pneumoniae ESBL−; Europe, N=361
  MIC90: 0.5 µg/mL (≈ 0.854 µM)
K. pneumoniae ESBL−; L. Amer, CLSI breakpoints
  % R (resistance): 0%
K. pneumoniae ESBL−; L. Amer, N=160
  MIC90: 0.5 µg/mL (≈ 0.854 µM)
K. pneumoniae ESBL−; N America, CLSI breakpoints
  % R (resistance): 0%
K. pneumoniae ESBL−; N America, N=671
  MIC90: 0.5 µg/mL (≈ 0.854 µM)
K. pneumoniae ESBL+; Asia/Pac, Eucast breakpoints
  % R (resistance): 3.2%
K. pneumoniae ESBL+; Asia/Pac, N=124
  MIC90: 1 µg/mL (≈ 1.71 µM)
K. pneumoniae ESBL+; Europe, Eucast breakpoints
  % R (resistance): 0.7%
K. pneumoniae ESBL+; Europe, N=151
  MIC90: 1 µg/mL (≈ 1.71 µM)
K. pneumoniae ESBL+; L. Amer, CLSI breakpoints
  % R (resistance): 0%
K. pneumoniae ESBL+; L. Amer, N=209
  MIC90: 2 µg/mL (≈ 3.41 µM)
K. pneumoniae ESBL+; N America, CLSI breakpoints
  % R (resistance): 0%
K. pneumoniae ESBL+; N America, N=108
  MIC90: 2 µg/mL (≈ 3.41 µM)
E. cloacae CeftazS; Asia/Pac, Eucast breakpoints
  % R (resistance): 2%
E. cloacae CeftazS; Asia/Pac, N=100
  MIC90: 0.5 µg/mL (≈ 0.854 µM)
E. cloacae CeftazS; Europe, Eucast breakpoints
  % R (resistance): 0%
E. cloacae CeftazS; Europe, N=183
  MIC90: 0.5 µg/mL (≈ 0.854 µM)
E. cloacae CeftazS; L. Amer, CLSI breakpoints
  % R (resistance): 0%
E. cloacae CeftazS; L. Amer, N=57
  MIC90: 1 µg/mL (≈ 1.71 µM)
E. cloacae CeftazS; N America, CLSI breakpoints
  % R (resistance): 0%
E. cloacae CeftazS; N America, N=210
  MIC90: 0.5 µg/mL (≈ 0.854 µM)
E. cloacae CeftazR; Asia/Pac, Eucast breakpoints
  % R (resistance): 1.6%
E. cloacae CeftazR; Asia/Pac, N=63
  MIC90: 0.5 µg/mL (≈ 0.854 µM)
E. cloacae CeftazR; Europe, Eucast breakpoints
  % R (resistance): 0%
E. cloacae CeftazR; Europe, N=72
  MIC90: 0.5 µg/mL (≈ 0.854 µM)
E. cloacae CeftazR; L. Amer, CLSI breakpoints
  % R (resistance): 0%
E. cloacae CeftazR; L. Amer, N=42
  MIC90: 1 µg/mL (≈ 1.71 µM)
E. cloacae CeftazR; N America, CLSI breakpoints
  % R (resistance): 0%
E. cloacae CeftazR; N America, N=77
  MIC90: 2 µg/mL (≈ 3.41 µM)
Enterobacter spp; Asia/Pac, Eucast breakpoints
  % R (resistance): 3.8%
Enterobacter spp; Asia/Pac, N=52
  MIC90: 1 µg/mL (≈ 1.71 µM)
Enterobacter spp; Europe, Eucast breakpoints
  % R (resistance): 1.2%
Enterobacter spp; Europe, N=82
  MIC90: 1 µg/mL (≈ 1.71 µM)
Enterobacter spp; L. Amer, CLSI breakpoints
  % R (resistance): 0%
Enterobacter spp; L. Amer, N=42
  MIC90: 0.5 µg/mL (≈ 0.854 µM)
Enterobacter spp; N America, CLSI breakpoints
  % R (resistance): 0%
Enterobacter spp; N America, N=101
  MIC90: 0.5 µg/mL (≈ 0.854 µM)
A. baumanii; Asia/Pac, N=275
  MIC90: 1 µg/mL (≈ 1.71 µM)
A. baumanii; Europe, N=145
  MIC90: 2 µg/mL (≈ 3.41 µM)
A. baumanii; L. Amer, N=275
  MIC90: 2 µg/mL (≈ 3.41 µM)
A. baumanii; N America, N=154
  MIC90: 2 µg/mL (≈ 3.41 µM)
Acinetobacter spp; Asia/Pac
  range of MICs (N <10, shown instead of MIC90): ≤0.03-1
Acinetobacter spp; Europe, N=43
  MIC90: 2 µg/mL (≈ 3.41 µM)
Acinetobacter spp; L. Amer
  range of MICs (N <10, shown instead of MIC90): ≤0.03-2
Acinetobacter spp; N America, N=42
  MIC90: 0.5 µg/mL (≈ 0.854 µM)
MSSA; Asia/Pac, Eucast breakpoints
  % R (resistance): 0%
MSSA; Asia/Pac, N=641
  MIC90: 0.25 µg/mL (≈ 0.427 µM)
MSSA; Europe, Eucast breakpoints
  % R (resistance): 0%
MSSA; Europe, N=2109
  MIC90: 0.25 µg/mL (≈ 0.427 µM)
MSSA; L. Amer, CLSI breakpoints
  % R (resistance): 0%
MSSA; L. Amer, N=590
  MIC90: 0.25 µg/mL (≈ 0.427 µM)
MSSA; N America, CLSI breakpoints
  % R (resistance): 0%
MSSA; N America, N=2373
  MIC90: 0.25 µg/mL (≈ 0.427 µM)
MRSA; Asia/Pac, Eucast breakpoints
  % R (resistance): 0%
MRSA; Asia/Pac, N=428
  MIC90: 0.25 µg/mL (≈ 0.427 µM)
MRSA; Europe, Eucast breakpoints
  % R (resistance): 0%
MRSA; Europe, N=750
  MIC90: 0.25 µg/mL (≈ 0.427 µM)
MRSA; L. Amer, CLSI breakpoints
  % R (resistance): 0%
MRSA; L. Amer, N=506
  MIC90: 0.25 µg/mL (≈ 0.427 µM)
MRSA; N America, CLSI breakpoints
  % R (resistance): 0%
MRSA; N America, N=2508
  MIC90: 0.25 µg/mL (≈ 0.427 µM)
MS CoNS; Asia/Pac
  % R (resistance): 0%
MS CoNS; Asia/Pac, N=18
  MIC90: 0.25 µg/mL (≈ 0.427 µM)
MS CoNS; Europe
  % R (resistance): 0%
MS CoNS; Europe, N=185
  MIC90: 0.25 µg/mL (≈ 0.427 µM)
MS CoNS; L. Amer, N=67
  MIC90: 0.25 µg/mL (≈ 0.427 µM)
MS CoNS; N America, N=191
  MIC90: 0.25 µg/mL (≈ 0.427 µM)
MR CoNS; Asia/Pac
  % R (resistance): 0%
MR CoNS; Asia/Pac, N=77
  MIC90: 0.25 µg/mL (≈ 0.427 µM)
MR CoNS; Europe
  % R (resistance): 0%
MR CoNS; Europe, N=510
  MIC90: 0.25 µg/mL (≈ 0.427 µM)
MR CoNS; L. Amer, N=301
  MIC90: 0.25 µg/mL (≈ 0.427 µM)
MR CoNS; N America, N=461
  MIC90: 0.25 µg/mL (≈ 0.427 µM)
E. faecalis VS; Asia/Pac, Eucast breakpoints
  % R (resistance): 0%
E. faecalis VS; Asia/Pac, N=214
  MIC90: 0.25 µg/mL (≈ 0.427 µM)
E. faecalis VS; Europe, Eucast breakpoints
  % R (resistance): 0%
E. faecalis VS; Europe, N=669
  MIC90: 0.25 µg/mL (≈ 0.427 µM)
E. faecalis VS; L. Amer, CLSI breakpoints
  % R (resistance): 0%
E. faecalis VS; L. Amer, N=290
  MIC90: 0.25 µg/mL (≈ 0.427 µM)
E. faecalis VS; N America, CLSI breakpoints
  % R (resistance): 0%
E. faecalis VS; N America, N=863
  MIC90: 0.25 µg/mL (≈ 0.427 µM)
E. faecalis VNS; Asia/Pac, N=1
  range of MICs (N <10, shown instead of MIC90): 0.25
E. faecalis VNS; Europe, Eucast breakpoints
  % R (resistance): 0%
E. faecalis VNS; Europe, N=8
  range of MICs (N <10, shown instead of MIC90): ≤0.03-0.25
E. faecalis VNS; L. Amer, CLSI breakpoints
  % R (resistance): 0%
E. faecalis VNS; L. Amer, N=7
  range of MICs (N <10, shown instead of MIC90): ≤0.03-0.06
E. faecalis VNS; N America, CLSI breakpoints
  % R (resistance): 0%
E. faecalis VNS; N America, N=38
  MIC90: 0.25 µg/mL (≈ 0.427 µM)
E. faecium VS; Asia/Pac, Eucast breakpoints
  % R (resistance): 0%
E. faecium VS; Asia/Pac, N=106
  MIC90: 0.12 µg/mL (≈ 0.205 µM)
E. faecium VS; Europe, Eucast breakpoints
  % R (resistance): 0%
E. faecium VS; Europe, N=303
  MIC90: 0.12 µg/mL (≈ 0.205 µM)
E. faecium VS; L. Amer, CLSI breakpoints
  % R (resistance): 0%
E. faecium VS; L. Amer, N=51
  MIC90: 0.12 µg/mL (≈ 0.205 µM)
E. faecium VS; N America, CLSI breakpoints
  % R (resistance): 0%
E. faecium VS; N America, N=115
  MIC90: 0.25 µg/mL (≈ 0.427 µM)
E. faecium VNS; Asia/Pac, Eucast breakpoints
  % R (resistance): 0%
E. faecium VNS; Asia/Pac, N=24
  MIC90: 0.25 µg/mL (≈ 0.427 µM)
E. faecium VNS; Europe, Eucast breakpoints
  % R (resistance): 0%
E. faecium VNS; Europe, N=71
  MIC90: 0.25 µg/mL (≈ 0.427 µM)
E. faecium VNS; L. Amer, CLSI breakpoints
  % R (resistance): 0%
E. faecium VNS; L. Amer, N=41
  MIC90: 0.12 µg/mL (≈ 0.205 µM)
E. faecium VNS; N America, CLSI breakpoints
  % R (resistance): 0%
E. faecium VNS; N America, N=478
  MIC90: 0.25 µg/mL (≈ 0.427 µM)
